According to PubChem BioAssay AID256 (DTP/NCI, 2004):
Several values for one entry are separate records, joined by “and”; a condition that tells them apart may be missing. Identical values can stand only once. Toxic doses and inconclusive results are not listed. How the source made its calls: active means survival T/C of 150% or more; inactive means T/C below 125% in these data.

System: CD2F1 mice, L1210 leukemia ip, survival T/C
Assay: NCI In Vivo Anticancer Drug Screen. Data for tumor model L1210 Leukemia (intraperitoneal) in CD2F1 (CDF1) mice
Conditions: higher = longer survival
Procedure, shortened: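 Each value reflects a quotient of treated over vehicle control outcomes in mice with a transplanted tumor.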

Measured: T/C

O=C(O)c1ccc(C(=O)O)c(C(=O)O)c1.[NH-]C1CCCCC1[NH-].[Pt+2]
active: endpoint: mean survival time, dose: 0.78 mg/kg/injection, schedule: Q01DX009 (ip), vehicle: sodium bicarbonate 174 % of control and 200 % of control | endpoint: mean survival time, dose: 1.56 mg/kg/injection, schedule: Q01DX009 (ip), vehicle: sodium bicarbonate 172 % of control and 325 % of control | endpoint: mean survival time, dose: 3.12 mg/kg/injection, schedule: Q01DX009 (ip), vehicle: sodium bicarbonate 155 % of control and 196 % of control and 251 % of control | endpoint: mean survival time, dose: 3.13 mg/kg/injection, schedule: Q04DX003 (ip), vehicle: other 183 % of control | endpoint: mean survival time, dose: 6.25 mg/kg/injection, schedule: Q01DX009 (ip), vehicle: sodium bicarbonate 190 % of control | endpoint: mean survival time, dose: 6.25 mg/kg/injection, schedule: Q04DX003 (ip), vehicle: other 240 % of control and 263 % of control | endpoint: mean survival time, dose: 6.25 mg/kg/injection, schedule: Q04DX003 (ip), vehicle: sodium bicarbonate 158 % of control | endpoint: mean survival time, dose: 12.5 mg/kg/injection, schedule: Q04DX003 (ip), vehicle: other 273 % of control and 291 % of control | endpoint: mean survival time, dose: 12.5 mg/kg/injection, schedule: Q04DX003 (ip), vehicle: sodium bicarbonate 247 % of control | endpoint: mean survival time, dose: 25.0 mg/kg/injection, schedule: Q04DX003 (ip), vehicle: other 328 % of control and 444 % of control | endpoint: mean survival time, dose: 25.0 mg/kg/injection, schedule: Q04DX003 (ip), vehicle: sodium bicarbonate 186 % of control | endpoint: median survival time, dose: 0.58 mg/kg/injection, schedule: Q01DX009 (ip), vehicle: sodium bicarbonate 156 % of control | endpoint: median survival time, dose: 1.2 mg/kg/injection, schedule: Q01DX009 (ip), vehicle: sodium bicarbonate 361 % of control | endpoint: median survival time, dose: 1.8 mg/kg/injection, schedule: Q01DX009 (ip), vehicle: sodium bicarbonate 313 % of control | endpoint: median survival time, dose: 2.7 mg/kg/injection, schedule: Q01DX009 (ip), vehicle: sodium bicarbonate 240 % of control | endpoint: median survival time, dose: 3.0 mg/kg/injection, schedule: Q01DX009 (ip), vehicle: sodium bicarbonate 357 % of control | endpoint: median survival time, dose: 3.13 mg/kg/injection, schedule: Q04DX003 (ip), vehicle: other 154 % of control and 280 % of control | endpoint: median survival time, dose: 3.13 mg/kg/injection, schedule: Q04DX003 (ip), vehicle: sodium bicarbonate 174 % of control | endpoint: median survival time, dose: 4.0 mg/kg/injection, schedule: Q01DX009 (ip), vehicle: sodium bicarbonate 166 % of control | endpoint: median survival time, dose: 4.5 mg/kg/injection, schedule: Q01DX009 (ip), vehicle: sodium bicarbonate 237 % of control | endpoint: median survival time, dose: 5.0 mg/kg/injection, schedule: Q04DX003 (ip), vehicle: sodium bicarbonate 176 % of control and 186 % of control and 195 % of control | endpoint: median survival time, dose: 5.24 mg/kg/injection, schedule: Q04DX003 (ip), vehicle: sodium bicarbonate 158 % of control | endpoint: median survival time, dose: 5.3 mg/kg/injection, schedule: Q01DX009 (ip), vehicle: sodium bicarbonate 182 % of control | endpoint: median survival time, dose: 6.25 mg/kg/injection, schedule: Q04DX003 (ip), vehicle: other 202 % of control and 313 % of control | endpoint: median survival time, dose: 6.25 mg/kg/injection, schedule: Q04DX003 (ip), vehicle: saline 265 % of control | endpoint: median survival time, dose: 6.25 mg/kg/injection, schedule: Q04DX003 (ip), vehicle: sodium bicarbonate 154 % of control and 348 % of control | endpoint: median survival time, dose: 7.78 mg/kg/injection, schedule: Q04DX003 (ip), vehicle: sodium bicarbonate 198 % of control | endpoint: median survival time, dose: 8.0 mg/kg/injection, schedule: Q01DX009 (ip), vehicle: water 180 % of control | endpoint: median survival time, dose: 10.0 mg/kg/injection, schedule: Q04DX003 (ip), vehicle: sodium bicarbonate 231 % of control and 247 % of control and 430 % of control | endpoint: median survival time, dose: 11.81 mg/kg/injection, schedule: Q04DX003 (ip), vehicle: sodium bicarbonate 295 % of control | endpoint: median survival time, dose: 12.0 mg/kg/injection, schedule: Q01DX009 (ip), vehicle: water 298 % of control | endpoint: median survival time, dose: 12.5 mg/kg/injection, schedule: Q04DX003 (ip), vehicle: other 202 % of control | endpoint: median survival time, dose: 12.5 mg/kg/injection, schedule: Q04DX003 (ip), vehicle: saline 361 % of control | endpoint: median survival time, dose: 12.5 mg/kg/injection, schedule: Q04DX003 (ip), vehicle: sodium bicarbonate 309 % of control and 348 % of control | endpoint: median survival time, dose: 13.0 mg/kg/injection, schedule: Q04DX003 (ip), vehicle: sodium bicarbonate 231 % of control | endpoint: median survival time, dose: 16.0 mg/kg/injection, schedule: Q01DX009 (ip), vehicle: water 240 % of control | endpoint: median survival time, dose: 17.74 mg/kg/injection, schedule: Q04DX003 (ip), vehicle: sodium bicarbonate 214 % of control | endpoint: median survival time, dose: 20.0 mg/kg/injection, schedule: Q01DX001 (ip), vehicle: sodium bicarbonate 174 % of control | endpoint: median survival time, dose: 25.0 mg/kg/injection, schedule: Q04DX003 (ip), vehicle: saline 361 % of control | endpoint: median survival time, dose: 25.0 mg/kg/injection, schedule: Q04DX003 (ip), vehicle: sodium bicarbonate 357 % of control | endpoint: median survival time, dose: 26.64 mg/kg/injection, schedule: Q04DX003 (ip), vehicle: sodium bicarbonate 345 % of control | endpoint: median survival time, dose: 30.0 mg/kg/injection, schedule: Q01DX001 (ip), vehicle: sodium bicarbonate 170 % of control and 175 % of control and 333 % of control | endpoint: median survival time, dose: 30.0 mg/kg/injection, schedule: Q04DX003 (ip), vehicle: sodium bicarbonate 323 % of control | endpoint: median survival time, dose: 40.0 mg/kg/injection, schedule: Q01DX001 (ip), vehicle: sodium bicarbonate 198 % of control and 714 % of control | endpoint: median survival time, dose: 50.0 mg/kg/injection, schedule: Q01DX001 (ip), vehicle: sodium bicarbonate 210 % of control | endpoint: median survival time, dose: 50.0 mg/kg/injection, schedule: Q04DX003 (ip), vehicle: sodium bicarbonate 345 % of control
227 % of control and 97 % of control: endpoint: mean survival time, dose: 12.5 mg/kg/injection, schedule: Q01DX009 (ip), vehicle: sodium bicarbonate
277 % of control and 108 % of control: endpoint: median survival time, dose: 8.3 mg/kg/injection, schedule: Q01DX009 (ip), vehicle: water
inactive: endpoint: mean survival time, dose: 0.39 mg/kg/injection, schedule: Q01DX009 (ip), vehicle: sodium bicarbonate 123 % of control | endpoint: mean survival time, dose: 0.39 mg/kg/injection, schedule: Q04DX003 (ip), vehicle: other 115 % of control | endpoint: mean survival time, dose: 0.78 mg/kg/injection, schedule: Q04DX003 (ip), vehicle: other 120 % of control | endpoint: mean survival time, dose: 0.78 mg/kg/injection, schedule: Q04DX003 (ip), vehicle: sodium bicarbonate 119 % of control | endpoint: mean survival time, dose: 1.56 mg/kg/injection, schedule: Q04DX003 (ip), vehicle: sodium bicarbonate 119 % of control | endpoint: mean survival time, dose: 8.0 mg/kg/injection, schedule: Q01DX005 (oral), vehicle: sodium bicarbonate 113 % of control and 120 % of control and 101 % of control | endpoint: mean survival time, dose: 16.0 mg/kg/injection, schedule: Q01DX005 (oral), vehicle: sodium bicarbonate 100 % of control and 105 % of control | endpoint: mean survival time, dose: 32.0 mg/kg/injection, schedule: Q01DX005 (oral), vehicle: sodium bicarbonate 108 % of control | endpoint: mean survival time, dose: 64.0 mg/kg/injection, schedule: Q01DX005 (oral), vehicle: sodium bicarbonate 108 % of control | endpoint: mean survival time, dose: 128.0 mg/kg/injection, schedule: Q01DX005 (oral), vehicle: sodium bicarbonate 113 % of control and 103 % of control | endpoint: mean survival time, dose: 256.0 mg/kg/injection, schedule: Q01DX005 (oral), vehicle: sodium bicarbonate 116 % of control and 121 % of control and 111 % of control | endpoint: median survival time, dose: 0.87 mg/kg/injection, schedule: Q01DX009 (ip), vehicle: water 101 % of control and 112 % of control | endpoint: median survival time, dose: 1.3 mg/kg/injection, schedule: Q01DX009 (ip), vehicle: water 115 % of control and 107 % of control | endpoint: median survival time, dose: 2.0 mg/kg/injection, schedule: Q01DX009 (ip), vehicle: water 122 % of control and 101 % of control | endpoint: median survival time, dose: 3.5 mg/kg/injection, schedule: Q01DX009 (ip), vehicle: water 107 % of control | endpoint: median survival time, dose: 64.0 mg/kg/injection, schedule: Q01DX009 (ip), vehicle: water 89 % of control
